Data from ChEMBL document CHEMBL1201862, “PubChem BioAssay data set” (2004).
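Briefly, cells in 96-well plates were exposed to five compound concentrations for 48 h, and endpoints were estimated by linear interpolation. Here, GI50 denotes the concentration required for 50% inhibition of growth.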 Calls of active or inactive are those of the source. Cut-off read from the data, not from the text of the source: active = GI50 up to about 1.1 µM and inactive = higher.

Assays:
Assay in all cases: NCI anticancer screen, dose series, 48 h
SNB-75 = tested on: SNB-75
TK-10 = tested on: TK-10
RXF 393 = tested on: RXF 393
SNB-19 = tested on: SNB-19
HCT-116 = tested on: HCT-116
CAKI-1 = tested on: CAKI-1
HOP-92 = tested on: HOP-92
NCI-H23 = tested on: NCI-H23
ACHN = tested on: ACHN
A498 = tested on: A498
OVCAR-5 = tested on: OVCAR-5
M14 = tested on: M14
MOLT-4 = tested on: MOLT-4
NCI-H460 = tested on: NCI-H460
SK-OV-3 = tested on: SK-OV-3
SK-MEL-5 = tested on: SK-MEL-5
U-251 = tested on: U-251
CCRF-CEM = tested on: CCRF-CEM
RPMI-8226 = tested on: RPMI-8226

Structure (SMILES)	GI50 (SNB-75)	GI50 (TK-10)	GI50 (RXF 393)	GI50 (SNB-19)	GI50 (HCT-116)	GI50 (CAKI-1)	GI50 (HOP-92)	GI50 (NCI-H23)	GI50 (ACHN)	GI50 (A498)	GI50 (OVCAR-5)	GI50 (M14)	GI50 (MOLT-4)	GI50 (NCI-H460)	GI50 (SK-OV-3)	GI50 (SK-MEL-5)	GI50 (U-251)	GI50 (CCRF-CEM)	GI50 (RPMI-8226)
CC1CC2C3CCC4=CC(=O)C=CC4(C)C3(F)C(O)CC2(C)C1(O)C(=O)CO.Cc1cc(NS(=O)(=O)c2ccc(/N=N\c3cc(/N=N/c4ccc(S(=O)(=O)Nc5cc(C)nc(C)n5)cc4)c(OC(=O)C(Cl)Cl)c4cccc(NC(=O)C(Cl)Cl)c34)cc2)nc(C)n1	42.8 µM (inactive)	42.7 µM (inactive)	23.9 µM (inactive)	16.5 µM (inactive)	34.3 µM (inactive)	31.2 µM (inactive)	32.5 µM (inactive)	30.3 µM (inactive)	19.5 µM (inactive)	27.5 µM (inactive)	16.6 µM (inactive)	28.9 µM (inactive)	27.4 µM (inactive)	25.9 µM (inactive)	> 100 µM (inactive)	2.97 µM (inactive)	18 µM (inactive)		
COC(=O)[C@@]12C=CC(=O)[C@H]3C[C@@H](C(C(C)C)C1)[C@]32OC (some centres undefined)	> 100 µM (inactive)	> 100 µM (inactive)	> 100 µM (inactive)	> 100 µM (inactive)	> 100 µM (inactive)	> 100 µM (inactive)	> 100 µM (inactive)	> 100 µM (inactive)	> 100 µM (inactive)	> 100 µM (inactive)	> 100 µM (inactive)	> 100 µM (inactive)	> 100 µM (inactive)	> 100 µM (inactive)	> 100 µM (inactive)	> 100 µM (inactive)	> 100 µM (inactive)	> 100 µM (inactive)	> 100 µM (inactive)
CC(C)(C)C1=CC(=NNC(=S)NCc2ccccc2)C=C(C(C)(C)C)C1=O	27.9 µM (inactive)	> 100 µM (inactive)	78.9 µM (inactive)	71 µM (inactive)	60.5 µM (inactive)			64 µM (inactive)	67.1 µM (inactive)	77.4 µM (inactive)		> 100 µM (inactive)	66.1 µM (inactive)	47.6 µM (inactive)		37.6 µM (inactive)	94.2 µM (inactive)	52.1 µM (inactive)	> 100 µM (inactive)
COc1ccc(OC)c2c(C(=O)O)c(C(C)c3ccccc3)ccc12 (centres undefined)	> 100 µM (inactive)	> 100 µM (inactive)	> 100 µM (inactive)	> 100 µM (inactive)	> 100 µM (inactive)	> 100 µM (inactive)		> 100 µM (inactive)	> 100 µM (inactive)	> 100 µM (inactive)	> 100 µM (inactive)	> 100 µM (inactive)	> 100 µM (inactive)	> 100 µM (inactive)	> 100 µM (inactive)	> 100 µM (inactive)	91.4 µM (inactive)	> 100 µM (inactive)	
C[C@]12Cc3cn[nH]c3C(=O)C1CC[C@@H]1C2CC[C@@]2(C)C1CC[C@@H]2O (some centres undefined)	> 100 µM (inactive)	> 100 µM (inactive)	> 100 µM (inactive)	> 100 µM (inactive)	> 100 µM (inactive)	> 100 µM (inactive)	> 100 µM (inactive)	> 100 µM (inactive)	> 100 µM (inactive)	> 100 µM (inactive)	> 100 µM (inactive)	> 100 µM (inactive)	> 100 µM (inactive)	> 100 µM (inactive)	> 100 µM (inactive)	> 100 µM (inactive)	> 100 µM (inactive)	> 100 µM (inactive)	> 100 µM (inactive)
COC(=O)C(C(=O)C(=O)Nc1ccc(Br)cc1)c1nc2ccc(Cl)cc2nc1O (centres undefined)	81.7 µM (inactive)	> 100 µM (inactive)	> 100 µM (inactive)	> 100 µM (inactive)	> 100 µM (inactive)	> 100 µM (inactive)	> 100 µM (inactive)	> 100 µM (inactive)	> 91.8 µM (inactive)	> 100 µM (inactive)	> 100 µM (inactive)	> 100 µM (inactive)	80.7 µM (inactive)	> 57.1 µM (inactive)	> 100 µM (inactive)	> 100 µM (inactive)	> 100 µM (inactive)	> 90.2 µM (inactive)	> 100 µM (inactive)
CC1(C)SCc2nc3ncccc3n21	> 100 µM (inactive)	> 100 µM (inactive)	> 100 µM (inactive)			> 100 µM (inactive)	> 100 µM (inactive)	> 100 µM (inactive)	> 100 µM (inactive)	> 100 µM (inactive)	> 100 µM (inactive)	> 100 µM (inactive)	> 100 µM (inactive)	> 100 µM (inactive)	> 100 µM (inactive)	> 100 µM (inactive)	> 100 µM (inactive)	> 100 µM (inactive)	> 100 µM (inactive)
Sc1ncnc2c1ncn2C1CCCO1 (centres undefined)	65.3 µM (inactive)	89.5 µM (inactive)	> 100 µM (inactive)	> 100 µM (inactive)	55.5 µM (inactive)	> 100 µM (inactive)	39.3 µM (inactive)	> 100 µM (inactive)	> 100 µM (inactive)	> 100 µM (inactive)	> 100 µM (inactive)	43.3 µM (inactive)	> 100 µM (inactive)	> 100 µM (inactive)	35.8 µM (inactive)	> 100 µM (inactive)	> 100 µM (inactive)	> 100 µM (inactive)	99.5 µM (inactive)
COc1ccc2oc3cccc(NCCN(C)C)c3c(=O)c2c1	15.3 µM (inactive)	14.8 µM (inactive)	13.2 µM (inactive)	14.3 µM (inactive)	7.01 µM (inactive)	4.69 µM (inactive)	13.8 µM (inactive)	17.7 µM (inactive)	10.5 µM (inactive)	19.1 µM (inactive)	12.3 µM (inactive)	15.8 µM (inactive)	4.01 µM (inactive)	8.83 µM (inactive)	15.2 µM (inactive)	16.7 µM (inactive)	12.7 µM (inactive)	11.9 µM (inactive)	12.6 µM (inactive)
CCN(CC)Cc1cc(Nc2c3ccccc3nc3c4ccccc4n(C)c23)ccc1O	13.6 µM (inactive)	13.9 µM (inactive)	11.3 µM (inactive)	16.7 µM (inactive)	7.16 µM (inactive)	11.2 µM (inactive)	5.9 µM (inactive)	15.1 µM (inactive)	11.2 µM (inactive)	13.7 µM (inactive)	10.1 µM (inactive)	1.92 µM (inactive)	2.77 µM (inactive)	7.91 µM (inactive)	16.7 µM (inactive)	2.61 µM (inactive)	10.8 µM (inactive)	2.05 µM (inactive)	3.67 µM (inactive)
COc1cc2c(c(OC)c1OC)-c1ccc(SC)c(=O)cc1[C@@H](NC(=O)c1ccc(Cl)cc1)CC2	2.16 µM (inactive)	2.36 µM (inactive)	< 0.01 µM (active)	< 0.01 µM (active)	< 0.01 µM (active)			< 0.01 µM (active)	< 0.01 µM (active)	< 0.01 µM (active)		< 0.01 µM (active)	< 0.01 µM (active)	< 0.01 µM (active)		< 0.01 µM (active)	< 0.01 µM (active)	< 0.01 µM (active)	< 0.01 µM (active)
O=C1CCC2(c3ccccc3)Nc3ccccc3N12 (centres undefined)	> 100 µM (inactive)	> 100 µM (inactive)	> 100 µM (inactive)			> 100 µM (inactive)	> 100 µM (inactive)	> 100 µM (inactive)	> 100 µM (inactive)	> 100 µM (inactive)	> 100 µM (inactive)	> 100 µM (inactive)	> 100 µM (inactive)	> 100 µM (inactive)		> 100 µM (inactive)	> 100 µM (inactive)	> 100 µM (inactive)	> 100 µM (inactive)
CN(C)c1nc2oc(-c3ccccc3)c(-c3ccccc3)c2c2nnnn12	41.1 µM (inactive)	> 100 µM (inactive)	> 100 µM (inactive)	> 100 µM (inactive)	> 100 µM (inactive)	> 100 µM (inactive)	> 100 µM (inactive)	> 100 µM (inactive)	> 100 µM (inactive)	> 100 µM (inactive)	> 100 µM (inactive)	> 100 µM (inactive)	> 100 µM (inactive)		> 100 µM (inactive)	> 100 µM (inactive)	> 100 µM (inactive)	> 100 µM (inactive)	> 100 µM (inactive)
O=c1[nH]ccc(CNC23CC4CC(CC(C4)C2)C3)c1O	> 100 µM (inactive)	> 100 µM (inactive)	48.4 µM (inactive)	> 100 µM (inactive)	> 100 µM (inactive)	59.7 µM (inactive)		> 100 µM (inactive)	93.5 µM (inactive)	> 100 µM (inactive)	> 100 µM (inactive)	> 100 µM (inactive)	55.7 µM (inactive)	79.3 µM (inactive)	> 100 µM (inactive)	> 100 µM (inactive)	> 100 µM (inactive)	41.5 µM (inactive)	> 100 µM (inactive)
O=C1NC2C(O)CCCCC2C12CCCCC2 (centres undefined)	> 100 µM (inactive)		> 100 µM (inactive)	> 100 µM (inactive)	> 100 µM (inactive)	> 100 µM (inactive)	> 100 µM (inactive)	> 100 µM (inactive)	> 100 µM (inactive)	> 100 µM (inactive)	> 100 µM (inactive)	> 100 µM (inactive)	> 100 µM (inactive)	> 100 µM (inactive)	> 100 µM (inactive)	> 100 µM (inactive)	> 100 µM (inactive)		> 100 µM (inactive)
